Test systems include HOP-92 NSCLC; HS 578T breast; M14 melanoma; MALME-3M melanoma; MCF7 breast; NCI/ADR-RES ovarian; EKVX NSCLC; RPMI-8226 leukemia; SW-620 colon.
Holding throughout (experiment): DTP human tumour cell line panel, 48 h

Here are results for 17 compounds from PubChem BioAssay (NCI).

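1) Cells in 96-well plates. 2) Compound, 48 h, 5 concentrations. 3) Linear interpolation between surrounding doses. 4) Unreached endpoint = highest concentration. Abbreviation: GI50, concentration required for 50% inhibition of growth. Definition used: TGI = concentration required for complete inhibition of growth.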

For the compound `COc1cc(/C=C2\CCCC3=C2N=C2SC=NN2C3c2cc(OC)c(OC)c(OC)c2)cc(OC)c1OC` (centres undefined), the GI50 was 2.98 µM in the assay on HOP-92 NSCLC; 4.85 µM with HS 578T breast; 2.4 µM in the assay on M14 melanoma; 2.99 µM in the assay on MALME-3M melanoma; 3.82 µM in the assay on MCF7 breast; 3.45 µM in the assay with NCI/ADR-RES ovarian. Also, the TGI with HOP-92 NSCLC is greater than 100 µM; in the assay on HS 578T breast, greater than 100 µM; in the assay on M14 melanoma it was 7.1 µM; in the assay on MALME-3M melanoma it was 7.09 µM; with MCF7 breast it was greater than 100 µM; in the assay on NCI/ADR-RES ovarian it was greater than 100 µM.
Regarding `COc1ccc(/C=C/C(=O)N[C@@H]2C(=O)N3[C@@H]2SC(C)(C)[C@@H]3C(=O)O)cc1OC`, the TGI in the assay with EKVX NSCLC, in the assay with HOP-92 NSCLC, in the assay on HS 578T breast, in the assay on M14 melanoma, in the assay with MCF7 breast and in the assay on NCI/ADR-RES ovarian was greater than 100 µM each time. In addition, the TGI in the assay with RPMI-8226 leukemia and in the assay with SW-620 colon was greater than 100 µM in each case.
Regarding `CNC(=S)c1nnsc1N`, the TGI in the assay with EKVX NSCLC, with HS 578T breast, in the assay on M14 melanoma, in the assay on MALME-3M melanoma, in the assay with MCF7 breast and with NCI/ADR-RES ovarian was greater than 100 µM throughout. Moreover, the concentration for total growth inhibition (TGI) in the assay with RPMI-8226 leukemia and in the assay with SW-620 colon was greater than 100 µM each time.
As for `COc1ccc(-c2c3c(n(C4OC(COC(C)=O)C(OC(C)=O)C(OC(C)=O)C4OC(C)=O)c(=S)c2C#N)CCCC3)cc1` (centres undefined), the TGI in the assay on EKVX NSCLC, in the assay with M14 melanoma, in the assay on MALME-3M melanoma, in the assay on MCF7 breast, with NCI/ADR-RES ovarian and in the assay on SW-620 colon was greater than 100 µM in each case.
In the case of `Cc1cccc(C)c1NC(=O)/C(CC(=O)CC(c1ccccc1)c1c(O)c2ccccc2oc1=O)=N/O` (centres undefined), the TGI in the assay on EKVX NSCLC, in the assay with HOP-92 NSCLC, with HS 578T breast, in the assay on M14 melanoma, in the assay on MCF7 breast and with NCI/ADR-RES ovarian was greater than 100 µM in each case. For the same compound, the TGI in the assay on SW-620 colon is greater than 100 µM.
Regarding `Cc1cc(NS(=O)(=O)c2ccc(N=Nc3c(Nc4ccccc4)nn(-c4ccc(S(=O)(=O)Nc5ccncn5)cc4)c3C)cc2)no1`, the TGI in the assay on EKVX NSCLC, in the assay with HOP-92 NSCLC, in the assay with M14 melanoma, in the assay with MALME-3M melanoma, with MCF7 breast and in the assay with NCI/ADR-RES ovarian was greater than 100 µM in each case.
Take `O=C(CCCN1CCC(Nc2ccc(F)cc2)(c2nnnn2C2CCCCC2)CC1)c1ccc(F)cc1`: the TGI is 35.4 µM with EKVX NSCLC; 46.3 µM in the assay with HS 578T breast; 32.4 µM in the assay with M14 melanoma; greater than 100 µM with MALME-3M melanoma; 33.1 µM in the assay with MCF7 breast; 46.9 µM in the assay on NCI/ADR-RES ovarian. In addition, the TGI is 34.4 µM in the assay with RPMI-8226 leukemia and greater than 100 µM in the assay with SW-620 colon.
As to `CCOC(=O)C(/C=N/C(N)=S)=C(/O)c1ccccc1`, the TGI in the assay on EKVX NSCLC, in the assay with HOP-92 NSCLC, in the assay with M14 melanoma, with MCF7 breast, in the assay with NCI/ADR-RES ovarian and in the assay on SW-620 colon was greater than 100 µM throughout.
As to `COc1cc(C2C(Cl)C(=O)N2NC(=O)c2ccccc2O)cc(OC)c1OC` (centres undefined), the TGI in the assay on EKVX NSCLC is greater than 10 µM; with HOP-92 NSCLC, greater than 10 µM; with HS 578T breast, greater than 10 µM; in the assay on M14 melanoma, greater than 10 µM; in the assay with MCF7 breast, 7.36 µM; with SW-620 colon, greater than 10 µM.
For `COc1ccc2oc(=O)c(-c3nc4ccccc4s3)cc2c1`, the TGI is greater than 65 µM in the assay on EKVX NSCLC; 58.2 µM in the assay on HOP-92 NSCLC; greater than 95.8 µM in the assay with HS 578T breast; greater than 58.3 µM in the assay on M14 melanoma; 28.2 µM in the assay on MALME-3M melanoma; greater than 96 µM with NCI/ADR-RES ovarian. Moreover, the concentration for total growth inhibition (TGI) in the assay on RPMI-8226 leukemia and in the assay with SW-620 colon was greater than 100 µM throughout.
As for `COc1ccc(OC/C(N=Cc2cccnc2)=N/NC(=O)c2ccncc2)cc1`, the TGI with EKVX NSCLC, in the assay with HS 578T breast, in the assay on M14 melanoma, in the assay on MALME-3M melanoma, in the assay on MCF7 breast and with NCI/ADR-RES ovarian was greater than 100 µM in each case. Also, the TGI in the assay with RPMI-8226 leukemia and in the assay with SW-620 colon was greater than 100 µM throughout.
`CN1CCN2CCN(C)CCN(CC1)CC2`: the TGI with EKVX NSCLC, in the assay on HOP-92 NSCLC, in the assay on HS 578T breast, with M14 melanoma, in the assay with MCF7 breast and with NCI/ADR-RES ovarian was greater than 100 µM in each case. The TGI in the assay with RPMI-8226 leukemia and in the assay on SW-620 colon was greater than 100 µM in each case.
For `CSc1c(C#N)c(=O)n(N)c2n[nH]c(C)c12`, the TGI in the assay with EKVX NSCLC, in the assay with HS 578T breast, in the assay on MALME-3M melanoma, with MCF7 breast, in the assay on NCI/ADR-RES ovarian and in the assay on RPMI-8226 leukemia was greater than 100 µM throughout. The same compound gave a TGI in the assay on SW-620 colon greater than 100 µM.
Consider `O=C(CN1CCOCC1)c1ccc2c(c1)oc(=O)n2CCN1CCCCC1`, for which the TGI in the assay with EKVX NSCLC, in the assay on HS 578T breast, in the assay on M14 melanoma, in the assay with MALME-3M melanoma, with MCF7 breast and in the assay on NCI/ADR-RES ovarian was greater than 100 µM each time. For the same compound, the concentration for total growth inhibition (TGI) in the assay on RPMI-8226 leukemia and with SW-620 colon was greater than 100 µM each time.
In the case of `CCN(CC)C(=O)CCNC(C)Cc1c[nH]c2ccccc12` (centres undefined), the TGI with EKVX NSCLC, with HOP-92 NSCLC, with HS 578T breast, with M14 melanoma, in the assay on MALME-3M melanoma and in the assay with NCI/ADR-RES ovarian was greater than 100 µM each time. Moreover, the TGI with RPMI-8226 leukemia and with SW-620 colon was greater than 100 µM in each case.
In the case of `COc1ccc([C@H]2C=C(c3cc(F)c(Cl)cc3Cl)N=c3s/c(=C\c4ccc(-c5ccc(Cl)cc5Cl)o4)c(=O)n32)cc1`, the TGI with HOP-92 NSCLC, with HS 578T breast, in the assay on M14 melanoma, in the assay on MALME-3M melanoma, with MCF7 breast and with NCI/ADR-RES ovarian was greater than 100 µM in each case. Further, the TGI in the assay on RPMI-8226 leukemia and in the assay with SW-620 colon was greater than 100 µM throughout.
With `Cc1c(OCc2cccc3ccccc23)ccc2c(=O)cc(S)oc12`, the TGI in the assay with EKVX NSCLC is greater than 100 µM; in the assay with HOP-92 NSCLC, 67.1 µM; in the assay on HS 578T breast it was greater than 100 µM; in the assay on M14 melanoma it was greater than 100 µM; in the assay with MCF7 breast, greater than 100 µM; in the assay on NCI/ADR-RES ovarian, greater than 100 µM. The compound also yielded a concentration for total growth inhibition (TGI) in the assay with SW-620 colon greater than 100 µM.
